In patent US7214690B2, “Tricyclic quinolinone and tricyclic quinoline androgen receptor modulator compounds and methods” (Ligand Pharmaceuticals Incorporated, priority 2001, dated 2007):

Tests used:
ER = molecular target: T1, ER (Homo sapiens, UniProt P03372); test: co-transfection assay, ER; type: cell-based
T1 construct: expressed in transfected cells; host or cells: background cell substantially devoid of endogenous IRs (CV-1 described for the co-transfection assay)
T1 sequence (P03372 1-595): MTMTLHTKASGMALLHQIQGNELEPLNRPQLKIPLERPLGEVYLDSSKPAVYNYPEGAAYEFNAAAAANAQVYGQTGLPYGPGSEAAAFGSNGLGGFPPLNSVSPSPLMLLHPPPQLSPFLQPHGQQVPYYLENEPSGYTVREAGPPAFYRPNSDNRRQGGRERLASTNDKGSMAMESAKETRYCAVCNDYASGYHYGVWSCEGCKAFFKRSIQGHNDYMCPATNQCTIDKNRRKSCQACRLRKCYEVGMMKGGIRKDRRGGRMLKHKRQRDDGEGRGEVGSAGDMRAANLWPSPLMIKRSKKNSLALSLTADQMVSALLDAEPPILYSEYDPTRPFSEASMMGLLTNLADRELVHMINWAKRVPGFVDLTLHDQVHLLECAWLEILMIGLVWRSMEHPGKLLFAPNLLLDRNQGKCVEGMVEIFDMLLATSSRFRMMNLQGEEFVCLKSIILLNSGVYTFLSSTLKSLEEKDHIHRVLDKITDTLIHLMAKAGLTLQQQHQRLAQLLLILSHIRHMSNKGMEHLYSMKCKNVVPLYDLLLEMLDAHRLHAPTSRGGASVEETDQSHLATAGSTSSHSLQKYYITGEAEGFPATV
Method: (§1) CV-1 cells (African green monkey kidney fibroblasts) were cultured in the presence of Dulbecco's Modified Eagle Medium (DMEM) supplemented with 10% charcoal resin-stripped fetal bovine serum (CH-FBS) then transferred to 96-well microtiter plates one day prior to transfection.
(§2) Three to four replicates were used for each sample.
(§3) After 40 hours, the cells were washed with PBS, lysed with a Triton X-100-based buffer and assayed for LUC and β-Gal activities using a luminometer or spectrophotometer, respectively. For each replicate, the normalized response (NR) was calculated as: LUC response/β-Gal rate • where β-Gal rate=β-Gal/β-Gal incubation time.

PR = molecular target: T2, PR (Homo sapiens, UniProt P06401); test: co-transfection assay, PR; type: cell-based
T2 construct: expressed in transfected cells; host or cells: background cell substantially devoid of endogenous IRs (CV-1 described for the co-transfection assay)
T2 sequence (P06401 1-933): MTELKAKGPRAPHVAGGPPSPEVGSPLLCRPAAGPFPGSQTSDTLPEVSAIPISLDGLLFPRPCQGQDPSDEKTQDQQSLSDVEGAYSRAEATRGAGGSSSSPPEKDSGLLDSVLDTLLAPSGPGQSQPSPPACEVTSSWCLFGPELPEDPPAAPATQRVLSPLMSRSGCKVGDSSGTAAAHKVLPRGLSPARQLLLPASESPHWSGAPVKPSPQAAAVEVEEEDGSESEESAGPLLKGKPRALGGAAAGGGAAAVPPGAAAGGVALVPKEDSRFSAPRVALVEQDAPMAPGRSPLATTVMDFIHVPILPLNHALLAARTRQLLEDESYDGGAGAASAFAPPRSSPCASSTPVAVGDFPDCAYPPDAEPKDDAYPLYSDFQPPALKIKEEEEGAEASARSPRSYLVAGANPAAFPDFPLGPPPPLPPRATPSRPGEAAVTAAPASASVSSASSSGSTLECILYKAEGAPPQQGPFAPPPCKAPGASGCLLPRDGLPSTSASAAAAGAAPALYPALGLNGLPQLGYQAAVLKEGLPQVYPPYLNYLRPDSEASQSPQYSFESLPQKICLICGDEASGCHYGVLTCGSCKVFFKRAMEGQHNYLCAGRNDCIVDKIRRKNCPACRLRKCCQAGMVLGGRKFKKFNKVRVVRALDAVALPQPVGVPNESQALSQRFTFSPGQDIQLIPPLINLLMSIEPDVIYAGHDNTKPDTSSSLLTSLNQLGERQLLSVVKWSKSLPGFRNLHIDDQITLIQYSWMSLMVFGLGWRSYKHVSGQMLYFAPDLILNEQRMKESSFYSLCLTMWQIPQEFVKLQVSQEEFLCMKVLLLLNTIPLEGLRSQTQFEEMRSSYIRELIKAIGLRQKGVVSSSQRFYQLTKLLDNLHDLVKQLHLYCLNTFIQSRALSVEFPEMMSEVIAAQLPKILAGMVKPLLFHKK
Method: as §1, §2, §3

CC(C)[C@@H]1COc2c(ccc3[nH]c(=O)cc(C(F)(F)F)c23)N1CC(F)(F)Cl [Compound 124, (3R)-4-(2-Chloro-2,2-difluoroethyl)-2,3,4,7-tetrahydro-3-isopropyl-10-(trifluoromethyl)-8H-[1,4]oxazino[2,3-f]quinolin-8-one]
> 10 µM: EC50 (ER) | IC50 (ER) | EC50 (PR)

C=CCN1c2ccc3[nH]c(=O)cc(C(F)(F)F)c3c2OC[C@H]1CC [Compound 114, (3R)-4-Allyl-3-ethyl-2,3,4,7-tetrahydro-10-(trifluoromethyl)-8H-[1,4]oxazino[2,3-f]quinolin-8-one]
> 10 µM: EC50 (ER) | IC50 (ER) | EC50 (PR)

CC[C@@H]1COc2c(ccc3[nH]c(=O)cc(C(F)(F)F)c23)N1CC(F)(F)F [Compound 110, (3R)-3-Ethyl-2,3,4,7-tetrahydro-4-(2,2,2-trifluoroethyl)-10-(trifluoromethyl)-8H-[1,4]oxazino[2,3-f]quinolin-8-one]
> 10 µM: EC50 (ER) | IC50 (ER) | EC50 (PR)
